Patent US10758614B2, “Combination therapies targeting tumor-associated stroma or tumor cells and topoisomerase” (BIOMED VALLEY DISCOVERIES, INC., priority 2014, dated 2020)

B1: M830: TEM8 monoclonal antibody (hIgG1), VH SEQ ID NO:5, VL SEQ ID NO:6 (antibody, V domains shown)
VH: EVQLVESGGGVVQPGRSVRLSCAASGFTFSTYTMHWVRQAPGKGLEWVAIISNDGSNKYYADPVRGRFTISRDNSKNTLYLQMNSLRAEDTAVYYCVRGSSWYRGNWFDPWGQGTLVTVSS
VL: DIQMTQSPSSLSASVGDRVTIACRASQTISRYLNWYQQKPGKAPKLLIYAASSLQSGVSSRFSGSGSGTEFTLTISSLQPEDFATYFCQQTYSPPITFGQGTRLEIKR
modifications: TEM830 mAb VH; TEM830 mAb VL

Columns and labels:
MDA-MB231 tumors = conditions: 79-day study, endpoint 1500 mm^3; logrank
Protocol: Unless otherwise noted, female immunodeficient athymic nude mice (Crl:NU(Ncr)-Foxn/nu, Charles River) were used at nine weeks old with a body weight (BW) range of about 15 to about 30 grams on Day 1 of the study.
On the day of tumor implant, each test mouse was injected with cultured tumor cells, and tumor growth was monitored as the average size approached the target range. Tumors were measured in two dimensions using calipers, and volume was calculated using the formula: Tumor Volume (mm^3)=(w^2×l)/2 where w=width and l=length, in mm, of the tumor. Tumor weight was estimated with the assumption that 1 mg is equivalent to 1 mm^3 of tumor volume. For all therapeutic studies, mice were sorted into groups containing the same average size tumors prior to initiation of therapy. Controls
One group in each cohort received 1% vehicle IP three times per week to end, and served as the control group for calculation of % tumor growth delay (TGD).
Tumors were measured using calipers twice per week, and each animal was euthanized when its tumor reached the pre-determined tumor volume endpoint described for each experiment (usually 2000 mm^3) or on the final day, whichever came first. […] The time to endpoint (TTE) for analysis was calculated for each mouse by the following equation: TTE=[ log10(endpoint volume)−b]/m where TTE is expressed in days, endpoint volume is expressed in mm^3, b is the intercept, and m is the slope of the line obtained by linear regression of a log-transformed tumor growth data set. […] The calculated TTE was usually less than the TP date, the day on which the animal was euthanized for determination of tumor size. […]
Treatment outcome was evaluated from TGD, defined as the increase in the median TTE in a treatment group compared to the control group: TGD=T−C, expressed in days, or as a percentage of the median TTE of the control group: % TGD=[(T−C)/C]×100 where: […]
Animals were weighed daily on Days 1-5, then twice per week until completion of the study. […] Group mean BW loss also was monitored as per protocol. […]

H460 cells = test: M830 in the H460 non-small cell lung carcinoma xenograft model; assay type: in vivo, athymic nude mice; conditions: M830 with combination partner Paclitaxel
Protocol: Animals were monitored for regression responses.
Cultured H460 cells were harvested during exponential growth and resuspended in phosphate buffered saline at a concentration of 1×10^8 cells/mL. 1.0×10^7 tumor cells were injected subcutaneously into the flank of athymic nude mice.

Molecule	survival compared to controls (MDA-MB231 tumors)	regression (at Day 21) (H460 cells)
COc1cccc2c1C(=O)c1c(O)c3c(c(O)c1C2=O)C[C@@](O)(C(=O)CO)C[C@@H]3O[C@H]1C[C@H](N)[C@H](O)[C@H](C)O1 [Doxorubicin, doxorubicin]	statistically significant survival extensions	–
CC(=O)O[C@H]1C(=O)[C@@]2(C)[C@H]([C@H](OC(=O)c3ccccc3)[C@]3(O)C[C@H](OC(=O)[C@H](O)[C@@H](NC(=O)c4ccccc4)c4ccccc4)C(C)=C1C3(C)C)[C@]1(OC(C)=O)CO[C@@H]1C[C@@H]2O [paclitaxel]	statistically significant survival extensions	–
B1	did not produce statistically significant survival benefit	(−61% regression)
